Results as given in patent publication US20190136321A1, “USE OF TRANSLATIONAL PROFILING TO IDENTIFY TARGET MOLECULES FOR THERAPEUTIC TREATMENT” (The Regents of The University of California, priority 2013, published 2019).
Read-outs that look alike come from different tables or passages of the source.

Experiments:
[1] = system: V600E-BRAF tumor cells; conditions: cited from earlier work
[2] = system: Pten^L/L mice; test: Pharmacological treatment of Pten^L/L mice (preclinical trial, prostate cancer); type: in vivo, mouse; conditions: Pten^L/L mice, RAD001 10 mg/kg daily
Experimental: Pten^loxp/loxp and Pb-cre mice where obtained from Jackson Laboratories and Mouse Models of Human Cancers Consortium (MMHCC), respectively, and maintained in the C57BL/6 background. Mice were maintained under specific pathogen-free conditions, and experiments were performed in compliance with institutional guidelines as approved by the Institutional Animal Care and Use Committee of UCSF.
Weight measurements were taken every 3 days to monitor for toxicity. For the 28-day study, mice were imaged via […] at day 0 and day 28 in a 14-T GE MR scanner (GE Healthcare).
Whole mouse prostates were removed from wild-type and Pten^L/L mice, microdissected, and frozen in liquid nitrogen. Frozen tissues were subsequently manually disassociated using a biopulverizer (Biospec) and additionally processed for protein and mRNA analysis as described above.
Prostates and lymph nodes were dissected from mice within 2 hr of the indicated treatment and fixed in 10% formalin overnight at 4° C. Tissues were subsequently dehydrated in ethanol (Sigma) at room temperature, mounted into paraffin blocks, and sectioned at […] Specimens were de-paraffinized and rehydrated using CitriSolv (Fisher) followed by serial ethanol washes. […] Sections were washed in distilled water followed by TBS washes. The sections were then incubated in 5% goat serum, 1% BSA in TBS for 1 hr at room temperature. Various primary antibodies were used, including those specific for keratin 5 (Covance), cytokeratin 8 (Abcam and Covance), YB1 (Abcam), vimentin (Abcam), MTA1 (Cell signaling), CD44 (BD Pharmingen), and the androgen receptor (Epitomics), which were diluted 1:50-1:500 in blocking solution and incubated on sections overnight at 4° C. Specimens were then washed in TBS and incubated with the appropriate Alexa 488 and 594 labeled secondary (Invitrogen) at 1:500 for 2 hr at room temperature, with the exception of YB1 which was incubated with biotinylated anti-rabbit secondary (Vector) followed by incubation with Alexa 594 labeled Streptavidin (Invitrogen). A final set of washes in TBS was completed at room temperature followed by mounting with DAPI Hardset Mounting Medium (Vector Lab). A Zeiss Spinning Disc confocal (Zeiss, CSU-X1) was used to image the sections at 40×-100×. Individual prostate cells were quantified for mean fluorescence intensity (m.f.i.) using the Axiovision (Zeiss, Release 4.8) densitometric tool.
Mouse lymph nodes were processed as described above and stained for CK8 and androgen receptor. Lymph nodes were imaged using a Zeiss AX10 microscope. Metastases were identified and areas were measured using the Axiovision (Zeiss, Release 4.8) measurement tool.
Immunohistochemistry was performed as described above (see “Immunofluorescence”) with the exception that immediately after antigen […] and TBS washes, specimens were incubated in 3% hydrogen peroxide in TBS followed by TBS washes. The following primary antibodies were used: phospho-AKT^S473 (Cell Signaling), phospho-rpS6^S240/244 (Cell Signaling), phospho-4EBP1^T37/46 (Cell Signaling), phospho-histone H3 (Upstate), and cleaved caspase (Cell Signaling). This was followed by TBS washes and incubation with the appropriate biotinylated secondary antibody (Vector Lab) for 30 min at room temperature. An ABC-HRP Kit (Vector Lab) was used to amplify the signal, followed by a brief incubation in hydrogen peroxide. The protein of interest was detected using DAB (Sigma). Specimens were counterstained with haematoxylin (Thermo Scientific), dehydrated with Citrisolv (Fisher), and mounted with Cytoseal XYL (Vector Lab).
Paraffin-embedded prostate specimens were deparaffinized and rehydrated as described above (see “Immunofluorescence”), stained with haematoxylin (Thermo Scientific), and washed with water. This was followed by a brief incubation in differentiation RTU (VWR) and two washes with water followed by two 70% ethanol washes. […]

[3] = system: PC3 cells; test: Ribosome profiling and RNA-seq of PC3 cells (translational efficiency, mRNA abundance); type: cell-based, human;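 also: mRNA is RNA-seq average read density per codon over the coding sequence, translational efficiency is ribosome footprint over RNA-seq density, scaled so the median gene equals 1.0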
Experimental: Given the critical role for mTOR in prostate cancer, PC3 human prostate cancer cells, in which mTOR is constitutively hyperactivated, were used to delineate translationally controlled gene expression networks upon complete or partial mTOR inhibition. Ribosome profiling was optimized to assess quantitatively ribosome occupancy genome-wide in cancer cells.
Cells were subsequently treated with cycloheximide (100 μg ml^−1) and detergent lysis was performed in the dish. The lysate was treated with DNase and clarified, and a sample was taken for RNA-seq analysis. Lysates were subjected to ribosome footprinting by nuclease treatment. Ribosome-protected fragments were purified, and deep sequencing libraries were generated from these fragments, as well as from poly(A) mRNA purified from non-nuclease-treated lysates.
Ribosome footprint and RNA-seq sequencing reads were aligned against a library of transcripts from the UCSC Known Genes database GRCh37/hg19. The first 25 nucleotides of each read were aligned using Bowtie and this initial alignment was then extended to encompass the full fragment-derived portion of the sequencing read while excluding the linker sequence. Read density profiles were then constructed for the canonical transcript of each gene, using only reads with 0 or 1 total mismatches between the read sequence and the reference sequence, comprised of the transcript fragment followed by the linker sequence. Footprint reads were assigned to an A site nucleotide at position +15 to +17 of the alignment, based on the total fragment length; mRNA reads were assigned to the first nucleotide of the alignment. The average read density per codon was then computed for the coding sequence of each transcript, excluding the first 15 and last 5 codons, which can display atypical ribosome accumulation.
Average read density was used as a measure of mRNA abundance (RNA-seq reads) and of protein synthesis (ribosome profiling reads). For most analyses, genes were filtered to require at least 256 reads in the relevant RNA-seq samples. Translational efficiency was computed as the ratio of ribosome footprint read density to RNA-seq read density, scaled to normalize the translational efficiency of the median gene to 1.0 after excluding regulated genes (log2 fold-change ±1.5 after normalizing for the all-gene median). Changes in protein synthesis, mRNA abundance and translational efficiency were similarly computed as the ratio of read densities between different samples, normalized to give the median gene a ratio of 1.0. This normalization corrects for differences in the absolute number of sequencing reads obtained for different libraries.

Compound: O=C(NOC[C@H](O)CO)c1ccc(F)c(F)c1Nc1ccc(I)cc1F [PD0325901]
- PNAS rna ([1]; gene ALF/GTF2A1L): 2.7 log2 MEKi/DMSO
- PNAS rna ([1]; gene ARID5A): −1.7 log2 MEKi/DMSO
- PNAS rna ([1]; gene B4GALT6): −1.7 log2 MEKi/DMSO
- PNAS rna ([1]; gene BXDC2/BRIX1): −1.2 log2 MEKi/DMSO
- PNAS rna ([1]; gene BYSL): −1.2 log2 MEKi/DMSO
- PNAS rna ([1]; gene CCND1): −2.2 log2 MEKi/DMSO
- PNAS rna ([1]; gene CD3EAP): −1.4 log2 MEKi/DMSO
- PNAS rna ([1]; gene CHSY1): −1.3 log2 MEKi/DMSO
- PNAS rna ([1]; gene DDX21): −1.1 log2 MEKi/DMSO
- PNAS rna ([1]; gene DUSP4): −2.2 log2 MEKi/DMSO
- PNAS rna ([1]; gene DUSP6): −2.6 log2 MEKi/DMSO
- PNAS rna ([1]; gene EGR1): −2.1 log2 MEKi/DMSO
- PNAS rna ([1]; gene ELOVL6): −1.5 log2 MEKi/DMSO
- PNAS rna ([1]; gene ETV1): −2.6 log2 MEKi/DMSO
- PNAS rna ([1]; gene ETV4): −2.2 log2 MEKi/DMSO
- PNAS rna ([1]; gene ETV5): −1.7 log2 MEKi/DMSO
- PNAS rna ([1]; gene FLJ10534/TSR1): −1.1 log2 MEKi/DMSO
- PNAS rna ([1]; gene FOS): −3.4 log2 MEKi/DMSO
- PNAS rna ([1]; gene FOSL1): −4.2 log2 MEKi/DMSO
- PNAS rna ([1]; gene GEMIN4): −1.2 log2 MEKi/DMSO
- PNAS rna ([1]; gene GNL3): −1.0 log2 MEKi/DMSO
- PNAS rna ([1]; gene GPR3): −2.1 log2 MEKi/DMSO
- PNAS rna ([1]; gene GTPBP4): −1.1 log2 MEKi/DMSO
- PNAS rna ([1]; gene HMGA2): −1.6 log2 MEKi/DMSO
- PNAS rna ([1]; gene HSPC111/NOP16): −1.3 log2 MEKi/DMSO
- PNAS rna ([1]; gene HYDIN): 2.1 log2 MEKi/DMSO
- PNAS rna ([1]; gene IER3): −3.3 log2 MEKi/DMSO
- PNAS rna ([1]; gene IL8): −2.5 log2 MEKi/DMSO
- PNAS rna ([1]; gene KIR3DL2): 1.7 log2 MEKi/DMSO
- PNAS rna ([1]; gene LIF): −3.2 log2 MEKi/DMSO
- PNAS rna ([1]; gene LNK/SH2B3): −2.0 log2 MEKi/DMSO
- PNAS rna ([1]; gene MAFF): −2.7 log2 MEKi/DMSO
- PNAS rna ([1]; gene MAP2K3): −1.5 log2 MEKi/DMSO
- PNAS rna ([1]; gene MYC): −2.4 log2 MEKi/DMSO
- PNAS rna ([1]; gene PHLDA2): −2.2 log2 MEKi/DMSO
- PNAS rna ([1]; gene PLK3): −2.3 log2 MEKi/DMSO
- PNAS rna ([1]; gene POLR1C): −1.0 log2 MEKi/DMSO
- PNAS rna ([1]; gene POLR3G): −1.0 log2 MEKi/DMSO
- PNAS rna ([1]; gene PPAN): −1.2 log2 MEKi/DMSO
- PNAS rna ([1]; gene PPAT): −1.1 log2 MEKi/DMSO
- PNAS rna ([1]; gene PYCRL): −2.6 log2 MEKi/DMSO
- PNAS rna ([1]; gene RRS1): −1.8 log2 MEKi/DMSO
- PNAS rna ([1]; gene SEMA6A): 2.1 log2 MEKi/DMSO
- PNAS rna ([1]; gene SLC1A5): −1.2 log2 MEKi/DMSO
- PNAS rna ([1]; gene SLC4A7): −1.6 log2 MEKi/DMSO
- PNAS rna ([1]; gene SPRED2): −1.0 log2 MEKi/DMSO
- PNAS rna ([1]; gene SPRY2): −4.0 log2 MEKi/DMSO
- PNAS rna ([1]; gene SPRY4): −2.6 log2 MEKi/DMSO
- PNAS rna ([1]; gene TNC): −2.5 log2 MEKi/DMSO
- PNAS rna ([1]; gene TNFRSF12A): −1.5 log2 MEKi/DMSO
- PNAS rna ([1]; gene WDR3): −1.1 log2 MEKi/DMSO
- PNAS rna ([1]; gene YRDC): −1.2 log2 MEKi/DMSO

Compound: CO[C@H]1C[C@@H]2CC[C@@H](C)[C@@](O)(O2)C(=O)C(=O)N2CCCC[C@H]2C(=O)O[C@H]([C@H](C)C[C@@H]2CC[C@@H](OCCO)[C@H](OC)C2)CC(=O)[C@H](C)/C=C(\C)[C@@H](O)[C@@H](OC)C(=O)[C@H](C)C[C@H](C)/C=C/C=C/C=C/1C [RAD001]
- regression of PIN lesions ([2]; 28 days): only partial regression
- proliferation (phospho-histone H3) ([2]; ATP site inhibitor of mTOR 1 mg/kg daily): limited decrease

Compound: CO[C@H]1C[C@@H]2CC[C@@H](C)[C@@](O)(O2)C(=O)C(=O)N2CCCC[C@H]2C(=O)O[C@H]([C@H](C)C[C@@H]2CC[C@@H](O)[C@H](OC)C2)CC(=O)[C@H](C)/C=C(\C)[C@@H](O)[C@@H](OC)C(=O)[C@H](C)C[C@H](C)/C=C/C=C/C=C/1C [rapamycin]
- TrlEff ([3]; gene ACTG1): −0.07
- mRNA ([3]; gene ACTG1): 0.02
- mRNA ([3]; gene AGRN): 0.01
- mRNA ([3]; gene AHCY): 0.20
- mRNA ([3]; gene ALKBH7): 0.06
- TrlEff ([3]; gene AP2A1): −0.04
- mRNA ([3]; gene AP2A1): 0.09
- TrlEff ([3]; gene ARD1A): 0.01
- mRNA ([3]; gene ARD1A): −0.04
- TrlEff ([3]; gene C21orf66): −0.09
- mRNA ([3]; gene C21orf66): −0.30
- TrlEff ([3]; gene CIRBP): 0.10
- mRNA ([3]; gene CLPTM1): 0.07
- mRNA ([3]; gene COL6A2): −0.08
- mRNA ([3]; gene ECSIT): −0.04
- TrlEff ([3]; gene EEF1A2): −0.03
- mRNA ([3]; gene EEF1A2): 0.03
- TrlEff ([3]; gene EVPL): 0.30
- mRNA ([3]; gene EVPL): −0.08
- mRNA ([3]; gene FAM128B): 0.06
- mRNA ([3]; gene IPO7): 0.20
- TrlEff ([3]; gene MTA1): −0.05
- mRNA ([3]; gene MTA1): 0.00
- mRNA ([3]; gene NCLN): −0.05
- TrlEff ([3]; gene PABPC4): −0.80
- TrlEff ([3]; gene PACS1): 0.04
- mRNA ([3]; gene PACS1): 0.07
- TrlEff ([3]; gene PGLS): 0.20
- mRNA ([3]; gene PGLS): 0.03
- mRNA ([3]; gene PGM1): 0.40
- mRNA ([3]; gene RABGGTB): −0.20
- mRNA ([3]; gene RPL6): 0.09
- TrlEff ([3]; gene RPL8): −0.40
- TrlEff ([3]; gene RPL9): −1.00
- mRNA ([3]; gene RPL10): 0.09
- mRNA ([3]; gene RPL11): 0.09
- mRNA ([3]; gene RPL12): 0.07
- mRNA ([3]; gene RPL14): 0.07
- mRNA ([3]; gene RPL17): 0.05
- mRNA ([3]; gene RPL18): 0.08
- mRNA ([3]; gene RPL22): 0.08
- mRNA ([3]; gene RPL23): 0.09
- mRNA ([3]; gene RPL27): 0.05
- mRNA ([3]; gene RPL27A): 0.06
- TrlEff ([3]; gene RPL29): −0.50
- mRNA ([3]; gene RPL29): 0.10
- mRNA ([3]; gene RPL31): −0.02
- mRNA ([3]; gene RPL36): 0.09
- mRNA ([3]; gene RPL37A): 0.08
- mRNA ([3]; gene RPL41): 0.04
- mRNA ([3]; gene RPS2): 0.07
- mRNA ([3]; gene RPS8): 0.09
- TrlEff ([3]; gene RPS9): −0.60
- mRNA ([3]; gene RPS9): 0.10
- mRNA ([3]; gene RPS13): 0.07
- TrlEff ([3]; gene RPS14): −0.60
- mRNA ([3]; gene RPS14): 0.10
- TrlEff ([3]; gene RPS15): 0.03
- mRNA ([3]; gene RPS15): −0.01
- mRNA ([3]; gene RPS15A): 0.07
- TrlEff ([3]; gene RPS21): −0.60
- mRNA ([3]; gene RPS21): −0.01
- mRNA ([3]; gene RPS25): 0.04
- mRNA ([3]; gene RPS27): 0.10
- TrlEff ([3]; gene RPS28): −0.80
- mRNA ([3]; gene RPS28): 0.01
- mRNA ([3]; gene RPS29): −0.01
- TrlEff ([3]; gene SLC25A5): −0.30
- mRNA ([3]; gene TKT): 0.02
- TrlEff ([3]; gene VIM): −0.40
